The assay has as its target T1, human GPR84 receptor (Homo sapiens, UniProt Q9NQS5).
T1 construct: host or cells: HEK293 cells, transient transfection
Kind of assay: Gαi biosensor BRET assay in HEK293 cells transfected with GPR84, stimulated with the GPR84 agonist ZQ-16. The class given is cell-based. The note with it: 200 nmol/L ZQ-16; for inhibition at 10 µM / inhibition at 2 µM: HEK293, single concentration; for inhibition at 10 µM: concentration class F = 10 μM; for inhibition at 2 µM: concentration class A = 2 μM. The text has this: Background—The following assays can be used for determination of GPR84 activation in living HEK293 cells. The Gαi BRET biosensor (Gagnon et al., 2018; Gales et al., 2006. Nat Struct Mol Biol. 13, 778-86; Saulieres et al., 2012. Nat Chem Biol. 8, 622-30) allows to directly monitor GPR84-mediated activation of Gαi. The Gαi biosensor consists of a Rluc8-tagged Gαi2 subunit, a GFP10-tagged Gγ2 subunit, and an untagged GB1. Agonist stimulation and GPR84 activation triggers a physical separation between the RLuc8-Gαi donor and the GFP10-Gγ2 acceptor, resulting in a decrease in BRET signal whose amplitude is correlated to ligand efficacy (Gales et al., 2006). Moreover, signaling functions of GPCRs are tightly regulated by endocytosis, the targeting of receptors to endosomes and their sorting to lysosomes or recycling to the plasma membrane. The early endosomes (EEs) trafficking assay (Namkung et al., 2016. Nat Commun. 7, 12178) uses Rluc8-tagged GPR84 and Renilla GFP (rGFP) attached to the FYVE domain from human endofin/zinc finger FYVE domain-containing protein 16, which binds phosphatidylinositol 3-phosphate in EEs. Agonist stimulation of GPR84-Rluc8 leads to trafficking of the receptor to EEs, and ensuing increase of the donor concentration relative to the rGFP-FYVE acceptor anchored in the same cellular compartment, and thus results in an increase in BRET signal.
Plasmids—The cDNA clones for human GPR84 receptor, human Gαi2, Gβ1, and Gγ2 were obtained from the cDNA Resource Center (www.cdna.org). GFP10 (F64L, S147P, S202F and H231L variant of Aequorea victoria Green Fluorescent Protein) gBlocks gene fragments (Integrated DNA Technologies, IA) and linker were inserted in frame at the N-terminus of human Gγ2. Rluc8 (A^55T, Cl24A, S130A, K136R, A^143M, M185V, M253L, and S287L variant of the Renilla reniformis luciferase) gBlocks gene fragment was inserted with linkers in frame in between residues 91 and 92 of Gαi2 or at the C-terminus of GPR84. The FYVE domain from human endofin (residues Q739 to K806) attached in frame at the C terminus of a humanized Renilla GFP (rGFP), were synthesized as gBlocks gene fragments.
Bioluminescence Resonance Energy Transfer (BRET) Measurement-HEK293 cells were transfected with GPR84-Rluc8 and rGFP-FYVE for the EEs trafficking biosensor or with GPR84, Gαi2-Rluc8, GFP10-Gγ2, and Gβ1 for the Gαi biosensor. The following day, transiently transfected cells were seeded in 96-well white clear bottom microplates coated with poly-D-lysine and left in culture for 24 hours. Cells were washed once with Tyrode's buffer (140 mmol/L NaCl, 1 mmol/L CaCl2, 2.7 mmol/L KCl, 0.49 mmol/L MgCl2, 0.37 mmol/L NaH2PO4, 5.6 mmol/L glucose, 12 mmol/L NaHCO3, and 25 mmol/L HEPES, pH 7.5) before performing assays in Tyrode's buffer. Test compounds were incubated with cells for 5 (Gai) or 15 (EEs) minutes at 37° C. before addition of 200 nmol/L of the GPR84 agonist ZQ-16 (2-(Hexylthio)-6-hydroxy-4 (3H)-pyrimidinone) for 5 minutes at room temperature (Gai) or 30 minutes at 37° C. (EEs). The Rluc8 substrate coelenterazine 400A (Prolume, Lakeside, AZ) was added at a final concentration of 5 μmol/L and BRET readings were collected using an Infinite M1000 microplate reader (Tecan, Morrisville, NC). BRET2 readings between Rluc8 and GFP10 or rGFP were collected by sequential integration of the signals detected in the 370 to 450 nm (Rluc8) and 510 to 540 nm (GFP10, rGFP) windows. The BRET signal was calculated as the ratio of light emitted by acceptor (GFP10, rGFP) over the light emitted by donor (Rluc8). The values were corrected to net BRET by subtracting the background BRET signal obtained in cells transfected with Rluc8 constructs alone. Ligand-promoted net BRET values were calculated by subtracting vehicle-induced net BRET from ligand-induced net BRET.

This passage reports inhibition and IC50 results from patent US20260256747A1, “ARYL-TRIAZOLYL AND RELATED GPR84 ANTAGONISTS AND USES THEREOF” (Liminal BioSciences Limited, priority 2022, published 2026).

T1 sequence (Q9NQS5 whole entry): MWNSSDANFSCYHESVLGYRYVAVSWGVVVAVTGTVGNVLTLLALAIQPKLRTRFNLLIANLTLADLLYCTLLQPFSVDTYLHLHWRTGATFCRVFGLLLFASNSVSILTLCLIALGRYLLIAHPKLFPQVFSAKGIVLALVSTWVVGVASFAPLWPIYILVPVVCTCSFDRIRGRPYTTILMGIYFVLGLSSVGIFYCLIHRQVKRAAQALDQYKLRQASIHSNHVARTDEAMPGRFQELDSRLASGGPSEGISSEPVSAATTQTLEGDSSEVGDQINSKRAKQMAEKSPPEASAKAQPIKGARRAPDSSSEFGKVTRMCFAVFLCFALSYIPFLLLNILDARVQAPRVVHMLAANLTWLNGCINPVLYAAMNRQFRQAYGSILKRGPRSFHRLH

On to `CN(C)C(=O)Cn1cc(-c2nnc(-c3ccc(C#CC4CC4)cc3F)o2)nn1` [Compound I-261], for which the inhibition at 10 µM was ≤ 25%.

`N#Cc1cnc(-c2cn(CC(=O)N3CCCC3)nn2)c(OC2CC2)c1` [Compound I-241] returned an inhibition at 10 µM of 25 to 50%.

With `Cc1cc(N2CCN(Cc3ccccn3)CC2)ccc1-c1cn(CC(=O)N(C)C)cn1` [Compound I-62], the inhibition at 10 µM is 25 to 50%.

As for `CC1(C)COC(Cn2cc(C#Cc3ccc(C4CC4)cc3)nn2)OC1` [Compound I-29], the inhibition at 10 µM was ≤ 25%.

With `CCN(CC)c1cc(N2CC(C)(CO)C2)ccc1-c1cn(CC2OCC3(CC3)CO2)nn1` [Compound I-147], the inhibition at 10 µM is > 75%.

For the compound `c1cc(-c2cnc(-c3cn(CC4OCC5(CC5)CO4)nn3)c(OC3CC3)c2)n[nH]1` [Compound I-235], the 50% inhibitory concentration (IC50) was ≤ 300 nM and the inhibition at 2 µM is > 75%.

`CN(C)C(=O)COc1cnc(-c2cn(CC(=O)N(C)C)nn2)c(OC2CC2)c1` [Compound I-71]: the inhibition at 10 µM was ≤ 25%.

The compound `NC(=O)c1cnc(-c2cn(CC3OCC4(CC4)CO3)nn2)c(OC2CC2)c1` [Compound I-204] had an inhibition at 10 µM of 50 to 75%.

As for `Cn1nnc(-c2cnc(-c3cn(CC4OCC5(CC5)CO4)nn3)c(OC3CC3)c2)n1` [Compound I-223], the half-inhibitory concentration (IC50) is ≤ 300 nM and the inhibition at 2 µM is > 75%.

Turning to `FC1(F)CC12CN(c1cnc(-c3cn(CC4OCC5(CC5)CO4)nn3)c(OC3CC3)c1)C2` [Compound I-18], the inhibition at 10 µM is 25 to 50%.

In turn, `CC1(C)COC(Cn2cc(-c3ncc(CC#N)cc3OC3CC3)nn2)OC1` [Compound I-40] registered an inhibition at 10 µM of 50 to 75%.

Regarding `CC1(C)COC(Cn2cc(Cc3cc(C#CC4CC4)ccc3Cl)nn2)OC1` [Compound I-136], the IC50 was 1000 to 3000 nM and the inhibition at 10 µM was > 75%.

On to `O=C(Cn1cc(-c2ncc(C#CC3CC3)cc2OC2CC2)nn1)N1CCCCC1` [Compound I-267], for which the inhibition at 10 µM was > 75%.

`CC1(C)COC(Cn2cc(-c3ncc(C#CCNC4COC4)cc3OC3CC3)nn2)OC1` [Compound I-21]: the half-inhibitory concentration (IC50) is ≤ 300 nM and the inhibition at 2 µM is > 75%.

For `Cc1cc(C#CC2CC2)ccc1-c1cn(Cc2cnco2)nn1` [Compound I-33], the inhibition at 10 µM is ≤ 25%.

Regarding `CN(C)C(=O)CNc1cnc(-c2cn(CC3OCC4(CC4)CO3)nn2)c(OC2CC2)c1` [Compound I-73], the inhibition at 10 µM was > 75%.

Consider `c1nc(-c2cn(CC3OCC4(CC4)CO3)nn2)c(OC2CC2)cc1N1CC2(COC2)C1` [Compound I-20], for which the inhibition at 10 µM was > 75%.

Turning to `CN(C)c1cc(N2CC(C)(CO)C2)c(F)cc1-c1cn(CC2OCC3(CC3)CO2)cn1` [Compound I-52], the IC50 was ≤ 300 nM and the inhibition at 10 µM was > 75%.

For the compound `CN(C)C(=O)Cn1cc(-c2ccc(N3CC(C)(CO)C3)cc2N(C)C)nn1` [Compound I-24], the IC50 lay in the range of 1000 to 3000 nM and the inhibition at 10 µM was > 75%.

For `Clc1cc(N2CCN(Cc3ccccn3)CC2)cnc1-c1cn(CC2OCC3(CC3)CO2)cn1` [Compound I-212], the inhibition at 10 µM is 50 to 75%.

For `CC1(C)COC(Cn2cc(C#Cc3ccncc3)nn2)OC1` [Compound I-32], the inhibition at 10 µM was ≤ 25%.

As for `[2H]C([2H])([2H])C1(C([2H])([2H])[2H])COC(Cn2cc(-c3ccc(N4CC(C)(CO)C4)cc3N(C)C)nn2)OC1` [Compound I-206], the inhibition at 10 µM is ≤ 25%.

Turning to `OC1CC2(C1)CN(CC#Cc1cnc(-c3cn(CC4OCC5(CC5)CO4)nn3)c(OC3CC3)c1)C2` (centres unmarked) [Compound I-22], the IC50 was ≤ 300 nM and the inhibition at 2 µM is > 75%.

In the case of `c1nc(-c2cn(CC3OCC4(CC4)CO3)nn2)c(OC2CC2)cc1-c1nnn[nH]1` [Compound I-205], the IC50 was ≤ 300 nM and the inhibition at 2 µM is > 75%.
